These results are taken from patent publication US20060135472A1, “Use of water-soluble polymers to improve stability of diiodomethyl-para-tolylsulfone in complex matrices” (priority 2004, published 2006).

SMILES strings stand for the structures.

Data set [1] is described as follows: Stability of DITS in a generic shampoo matrix after storage at 40° C. for 8 weeks, by HPLC. In kind it is physicochemical. As for the experimental part: All analytical data were obtained by high performance liquid chromatography (“HPLC”) analysis for content for diiodomethyl-p-tolylsulfone (DITS) and monoiodomethyl-p-tolylsulfone (MITS). Analysis was done on an Agilent HP system using a Phenomenex Bondclone 10 micron C18 reverse phase column (300×3.9 mm, 10 microns) at a flow rate of 2 mL/min, isocratic 55% acetonitrile in water for 17 min. Under these conditions DITS elutes at 3.9-4.3 min and MITS elutes at 2.9-3.3 min, depending on the shampoo matrix. […]
To a 250 mL glass jar were added 24.81 g water and 0.2526 g SL 400. The mixture was stirred vigorously for 1.5 h. Then, 1.0302 g milled AMICAL™ diiodomethyl-para-tolylsulfone was added, and the mixture was stirred for an additional 1.5 hours. After that, the premix was heated to 68° C. in a hot water bath, and a pre-blended mixture of Standapol* EA-3 (32.98 g), Standapol* A (11.16 g), and LAA (16.70 g) was added with agitation. 12.9 g of DI water was added next, and stirring was continued in the hot water bath. After 10 min, […] to adjust the pH. After an additional 10 min, the temperature of the mixture was recorded (68° C.) and the heating was stopped. The mixture was stirred on high speed for another hour, until it cooled. At that point, 0.31 g Glydant* and 0.30 g fragrance were added, and the sample was adjusted with water to 100 g formulation. Stirring continued for another hour. […]
This procedure was followed for all the polymers listed in Table 1, at the stated polymer concentration. In all cases, AMICAL™ 48 milled to a D50=2 microns was used (diiodomethyl-p-tolylsulfone content 92.5%). Detailed here is the example involving SOFTCAT™ SL 400 at 0.25% concentration.
To a 250 mL glass jar were added 24.82 g water and 0.2644 g SOFTCAT™ SL 400. The mixture was stirred vigorously for 1.5 h. Separately, in a 250 mL beaker were combined Standapol* EA-3 (33.57 g), Standapol* A (11.08 g), and LAA (16.13 g). The mixture was stirred vigorously using an overhead stirrer, and after 10 min, 1.0120 g milled DITS (AMICAL™ 48) was added, followed by 5.0 g water. The DITS-surfactant blend was stirred for 1.25 hours. After that, the DITS—surfactant blend was added with agitation to the polymer solution which had been heated to 58° C. in a hot water bath. 8.12 g of deionized water was added next, and stirring was continued in the hot water bath. After 10 min, 1 mL of a 10% aqueous citric acid solution was added to adjust the pH. After an additional 15 min, the temperature of the mixture was recorded (58° C.) and the heating was stopped. The mixture was stirred on high speed for another hour, until it cooled. At that point, 0.44 g Glydant* and 0.3 g fragrance were added, and the sample was adjusted with water to 100 g formulation. […]

Another data set concerns fungi. Particulars: wide variety of fungi; cited from earlier work.
The conditions of data set [2]: cited from earlier work.

On to `Cc1ccc(S(=O)(=O)C(I)I)cc1` [DITS, diiodomethyl-para-tolylsulfone], for which, in data set [1] (Example 4, no polymer control, 8 week at 40° C.), the “DITS content after storage (HPLC)” value turned out to be 0.44%. Further, the “DITS content at time zero (HPLC)” value in data set [1] (Example 4, no polymer control, time zero) worked out at 1.02%. The same molecule had a decomposition in data set [1] (control samples formulated without polymer, shampoo matrix, 8 weeks at 40° C.) of around 60%. In addition, the “% DITS left when added to surfactant blend” value in data set [1] (generic shampoo matrix, 40° C. for 8 weeks, no polymer (control, Example 4)) came to 43.2%. For the same molecule, the minimum inhibitory concentration entry with fungi is “less than 10 ppm”. Besides, the water solubility entry in data set [2] is recorded as “less than 10 ppm”.
